Measured values: publication PMC5380162, “Characterization of a novel N-acetylneuraminic acid lyase favoring N-acetylneuraminic acid synthesis” (Scientific Reports, 2015)
Each block holds one compound with its values, some of them ahead of it.

Key:
Type in all cases: biochemical
CgNal [1] = target: T1, CgNal (Corynebacterium glutamicum, UniProt Q8NMD2); assay: HPLC of substrates and products, Neu5Ac cleavage; conditions: read-out: Neu5Ac Cleavage / Neu5Ac / Km; 0.1 M Tris-HCl pH 7.5, assay at 37 °C; cleavage direction
T1 construct: gene Cgl2646; full length 312 aa (939 bp ORF), pET-28a(+), N-terminal His6-tag, E. coli Rosetta (DE3) pLysS, ~33 kDa, Ni-NTA; NAL family homotetramer
T1 sequence (Q8NMD2 entry or part of it): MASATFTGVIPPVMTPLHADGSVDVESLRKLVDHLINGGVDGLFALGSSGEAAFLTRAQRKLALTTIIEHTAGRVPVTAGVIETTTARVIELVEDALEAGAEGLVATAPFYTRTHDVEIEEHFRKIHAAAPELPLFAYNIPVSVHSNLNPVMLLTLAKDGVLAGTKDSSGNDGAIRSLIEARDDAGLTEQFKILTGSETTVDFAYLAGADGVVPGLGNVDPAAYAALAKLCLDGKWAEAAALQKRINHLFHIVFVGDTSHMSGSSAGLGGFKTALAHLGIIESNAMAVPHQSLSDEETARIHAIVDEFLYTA
From the text: HPLC of substrates and products, Neu5Ac cleavage on CgNal

EcDHDPS = target: T2, EcDHDPS (Escherichia coli, UniProt P0A6L2); assay: coupled enzymatic assay (Yugari and Gilvarg); conditions: co-substrate pyruvate
T2 construct: gene dapA; dapA amplified from E. coli genomic DNA into pET-28a(+), expressed in E. coli Rosetta, Ni-NTA
T2 sequence (P0A6L2 1-292): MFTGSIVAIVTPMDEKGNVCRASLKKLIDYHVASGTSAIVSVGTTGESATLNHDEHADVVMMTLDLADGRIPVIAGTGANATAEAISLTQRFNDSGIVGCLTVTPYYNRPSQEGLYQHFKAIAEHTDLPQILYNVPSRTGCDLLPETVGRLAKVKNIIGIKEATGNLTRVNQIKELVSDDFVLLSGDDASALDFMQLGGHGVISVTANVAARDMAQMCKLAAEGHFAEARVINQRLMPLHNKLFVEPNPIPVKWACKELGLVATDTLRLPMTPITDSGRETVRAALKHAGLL

CgNal [2] = target: T1, CgNal; assay: HPLC of substrates and products, Neu5Ac synthesis; conditions: 0.1 M Tris-HCl pH 7.5, assay at 37 °C, synthesis direction
From the text: HPLC of substrates and products, Neu5Ac synthesis on CgNal

- Km (CgNal [1]): 33.5 mM
Structure (SMILES): CC(=O)N[C@H]1[C@H]([C@H](O)[C@H](O)CO)OC(O)(C(=O)O)C[C@@H]1O (stereo partly shown) [Neu5Ac]

Structure (SMILES): N[C@@H](CC=O)C(=O)O [ASA]
- coupled enzymatic assay (Yugari and Gilvarg) (EcDHDPS): Using ASA as substrate, CgNal showed only half the activity of EcDHDPS

- Km (CgNal [2]; read-out: Neu5Ac Synthesis / Pyruvate / Km, ManNAc fixed at 50 mM): 14.7 mM
Structure (SMILES): CC(=O)C(=O)O [pyruvate]

- Km (CgNal [2]; read-out: Neu5Ac Synthesis / ManNAc / Km, pyruvate fixed at 100 mM): 53.3 mM
Structure (SMILES): CC(=O)N[C@@H]1C(O)O[C@H](CO)[C@@H](O)[C@@H]1O (stereo partly shown) [ManNAc]
